Literature values, collected in patent publication US20060069075A1, “Methods for treating dry eye” (priority 2001, published 2006).

System: human conjunctival epithelial cells
Details: background statement, no data given

SMILES: CCCCC[C@H](O)/C=C/C=C\C/C=C\C/C=C\CCCC(=O)O [15-HETE]
- secretion of mucin-1 (MUC-1): increase the secretion of mucin-1 (MUC-1)
